Consider four compounds from patent US9642921B2, “Cancer combination therapy and recombinant vectors” (Tocagen Inc., priority 2012, dated 2017).

For data set [1] the following is noted: pharmacokinetic studies; cited from earlier work.
Data set [2] can be described thus: Dose finding study 5-FC and TMZ, hematological examination, healthy B6C3/F1 mice. In kind it is in vivo, mouse. As to the method: A dose finding study was conducted in healthy B6C3/F1 hybrid mice to evaluate the clinical effects and possible hematological changes during concomitant administration of 5-FC and TMZ. Both drugs are known to cause hematological toxicity in some circumstances and therefore it is important to examine any potential drug interaction with respect to this potentially toxic side effect. Three concentrations of TMZ (25, 60 and 125 mgkg^−1) in combination with a fixed dose of 5-FC (500 mgkg^−1 per dose) were administered intraperitoneal SID for 4 consecutive days starting on days 1, 8, 22 and 36. Mice were terminated on day 51 for hematological examination.

The nature of data set [3]: Dose finding study 5-FC and TMZ, hematological examination, healthy athymic mice. In kind it is in vivo, mouse. As to the method: To test the effect of the combination therapy of TMZ and Toca 511+5-FC treatment in a TMZ-sensitive cell line in vivo, the U-87MG cell line was used in an orthotopic xenograft glioma model in immunocompromised mice. A similar TMZ dose finding study as for the C3B6F1-immunocompetent mice was conducted in healthy athymic mice to evaluate the clinical effects and possible hematological changes during concomitant administration of 5-FC and TMZ. Two concentrations of TMZ (25 and 60 mgkg^−1) in combination with a fixed dose of 5-FC (500 mgkg^−1 per dose) were administered intraperitoneal SID for 4 consecutive days starting on days 1, 15, 29 and 43. Mice were terminated on day 53 for hematological examination.

A further data set relates to Tu-2449. Put plainly: In vitro RRV-GFP spread (FACS). In kind it is cell-based, mouse. Conditions: TMZ up to 20 mgml^−1 added 24 h before RRV-GFP, by day 19. Here is the method:
(§1) Two different TMZ schedules were tested. To test the effect of preincubation with TMZ, cells were seeded at a density of 1×10^5 cells per well on six-well plates. After 24 h, different concentrations of TMZ were added to the cells. The next day, cells were infected with RRV-GFP vector at a multiplicity of infection of 0.1. To test the effect of concomitant TMZ, cells were seeded at a density of 1×10^5 cells per well on six-well plates. After 48 h, cells were infected with RRV-GFP vector at a multiplicity of infection of 0.1 in the presence of different concentrations of TMZ. The following day, cells were transferred to T25 flasks keeping the indicated TMZ concentration. Cells were analyzed three times a week by enhanced green fluorescent protein fluorescence-activated cell sorting analysis for virus spread, maintaining the indicated TMZ concentration during the entire experiment.
(§2) To test any possible effect of TMZ on the spread of Toca 511, the same panel of glioma cells was treated with different concentrations of TMZ depending on the TMZ sensitivity of the cells determined in the clonogenic assay in FIG. 1b. In addition, vector with the same backbone as Toca 511 but encoding a GFP transgene (RRV-GFP) was used to assess vector spread by fluorescence-activated cell sorting analysis. Two TMZ treatment schedules were tested. […]

Data set [4] deals with five glioma cell lines (U-87MG, LN-18, LN-229, 8-MG-BA, Tu-2449). In kind it is cell-based, human and mouse. Here is the method: as §1, §2
A further data set has as its system LN-18. The data set is described as follows: In vitro RRV-GFP spread (FACS). The conditions noted are these: TMZ up to 20 mgml^−1 added 24 h before RRV-GFP, by day 19. In kind it is cell-based, human. As to the method: as §1
(§3) To test any possible effect of TMZ on the spread of Toca 511, the same panel of glioma cells was treated with different concentrations of TMZ depending on the TMZ sensitivity of the cells determined in the clonogenic assay in FIG. 1b. In addition, vector with the same backbone as Toca 511 but encoding a GFP transgene (RRV-GFP) was used to assess vector spread by fluorescence-activated cell sorting analysis. Two TMZ treatment schedules were tested. The first schedule tested treatment with varying concentrations of TMZ before and during the time of vector infection, and the second schedule tested treatment with varying concentrations of TMZ at the same time as the addition of vector. In the first schedule, glioma cells were incubated with different concentrations of TMZ 24 h before the addition of RRVGFP at a multiplicity of infection of 0.1. […] There was an initial lag or decrease in GFP positivity at earlier time points (FIG. 2a). […] In the second schedule, when TMZ and RRV-GFP were added to the glioma cells concomitantly, the same trend was observed; after an initial lag, cells reached nearly 100% GFP positivity in the presence of TMZ (FIG. 2b). The observed infectivity lag was likely due to induction of apoptosis in a certain percentage of cells with TMZ treatment. Surviving cells were still susceptible to infection with RRV-GFP and able to produce more RRV-GFP virus for further infection and spread within the culture dish. […] Rather the data is consistent with the conclusion that slowing of tumor cell replication with the anticancer drug TMZ, slows the replication of the RRV because of the inhibition of cancer cell replication and the requirement for cell replication for productive infection with RRV.

A further data set deals with U-87MG. The data set is described as follows: In vitro RRV-GFP spread (FACS). The conditions noted are these: 10 mgml^−1 of TMZ. In kind it is cell-based, human. As to the method:
as §1, §3

The next data set concerns 8-MG-BA. The data set is described as follows: In vitro RRV-GFP spread (FACS). In kind it is cell-based, human. Conditions: 1 and 2 mgml^−1 TMZ added 24 h before RRV-GFP, by day 16. Here is the method: as §1, §3
The test system of a further data set is LN-229. Put plainly: In vitro RRV-GFP spread (FACS). In kind it is cell-based, human. Conditions: 1 and 2 mgml^−1 TMZ added 24 h before RRV-GFP, by day 16. As to the method:
as §1, §3

The test system of data set [5] is Tu-2449 cells (naive and Toca 511-transduced). The data set is described as follows: In vitro 5-FC sensitivity assay (XTT viability). Conditions: day 6. In kind it is cell-based, mouse. As to the method: (§4) Tu-2449 and U-87MG cells were infected with ˜1×10^4 transducing units (TU) ml^−1 of Toca 511 in the presence of polybrene (8 mgml^−1). Cells were passaged 2-3 times a week for 17 days. […] Cells were seeded on day 0 at a concentration of 1×10^3 cells per well of a 96-well plate in […] of culture medium (Dulbecco's modified Eagle's mediump10% fetal calf serum+gentamicin (17 mg per 100 ml)). On day 1, […] of culture medium containing 5-FC (range 0-1000 mgml^−1), TMZ (range 0-100 mgml^−1) or both drugs (5-FC (range 0-1.6 mgml^−1) and TMZ (2 mgml^−1)) was added to the cells. Viability was measured on day 6 using Cell Proliferation Kit II (XTT) (Roche, Indianapolis, Ind., USA) as recommended by the manufacturer.
(§5) Two glioma lines U-87MG (TMZ-sensitive) and Tu-2449 (TMZ-resistant) were chosen to examine the compatibility of TMZ and Toca 511p5-FC treatment in previously infected cells. These two cell lines were cultured as either non-transduced control or 100% Toca 511-transduced cells. Sensitivity to 5-FC was examined by measuring cell viability after culture in increasing amounts of 5-FC. […] In addition, cell viability was examined in the nontransduced and transduced cell lines treated with increasing amounts of TMZ.
(In general: Tetrazolium dyes change colour on reduction, which living cells bring about.)

In data set [6] the test system is U-87MG cells (naive and Toca 511-transduced). The data set is described as follows: In vitro 5-FC sensitivity assay (XTT viability). In kind it is cell-based, human. Conditions: day 6. Here is the method:
as §4, §5

The test system of another data set is human NET cell lines. The conditions noted are these: capecitabine and TMZ in human NET cell lines; cited from earlier work.
The mark [7] stands for this setting: highest TMZ dose (125 mgm^−2) coadministered with 5-FC.

`O=c1[nH]cc(F)c(=O)[nH]1` [5-FU, 5-fluorouracil]: the “blood brain barrier passage” value in data set [1] is given as “crosses the blood brain barrier”.
Turning to `Cn1nnc2c(C(N)=O)ncn2c1=O` [TMZ, Temozolomide], the hematological changes entry in [2] (TMZ 25 mgkg^−1 per day (human equivalent of 75 mgm^−2) with 5-FC 500 mgkg^−1 per dose) is reported as “without significant hematological changes”; in [3] (TMZ 60 mgkg^−1 (human equivalent of 200 mgm^−2) in combination with 5-FC) it was “substantially severe hematological changes (leukocytopenia, thrombocytopenia)”. Moreover, the leukocytes result in data set [2] (setting [7]) is on record as “almost complete loss”. Besides, the platelet counts entry in [2] (setting [7]) is listed as “significant reduction”. In addition, the “increase in ALT activity” value in [3] (TMZ 60 mgkg^−1 in combination with 5-FC) is reported as “five fold increase”. The “changes in hematological parameters” value in [3] (lower TMZ dose of 25 mgkg^−1 in combination with 5-FC) is recorded as “mild changes”. Moreover, the GFP positivity in the data set on Tu-2449 was roughly 100%; in data set [4], roughly 100%; with LN-18, roughly 100%; in the data set with 8-MG-BA, 100%; in the data set on LN-229, 100%. The compound also came in with a cells killed in the data set with U-87MG of roughly 90%.
In the case of `Nc1nc(=O)[nH]cc1F` [5-FC, 5-fluorocytosine], the “sensitivity to 5-FC (cell viability)” value in data set [5] (Toca 511-transduced Tu-2449) is “sensitive to 5-FC in a dose-dependent manner”; in data set [5] (naive (non-transduced) Tu-2449, up to 100 mgml^−1 5-FC) it was “highly resistant”; in [6] (Toca 511-transduced U-87MG), “sensitive to 5-FC in a dose-dependent manner”; in [6] (naive (non-transduced) U-87MG, up to 100 mgml^−1 5-FC), “highly resistant”.
For the compound `CCCCCOC(=O)Nc1nc(=O)n([C@@H]2O[C@H](C)[C@@H](O)[C@H]2O)cc1F` [capecitabine], the “induction of apoptosis, combination effect” value in the data set on human NET cell lines is “synergistic”.
